Experimental data from ChEMBL document CHEMBL5346859, “Dual-target Janus kinase (JAK) inhibitors: Comprehensive review on the JAK-based strategies for treating solid or hematological malignancies and immune-related diseases” (Eur J Med Chem, 2022).
pIC50: −log10 of the molar value. Each block holds one compound with its values, some of them ahead of it.

Legend:
[1] = molecular target: T1, Tyrosine-protein kinase JAK2 (Homo sapiens, UniProt O60674); experiment: Inhibition of recombinant human JAK2 (808 to end residues) using biotinylated TK substrate in presence of [33P]ATP
T1 sequence (O60674 whole entry): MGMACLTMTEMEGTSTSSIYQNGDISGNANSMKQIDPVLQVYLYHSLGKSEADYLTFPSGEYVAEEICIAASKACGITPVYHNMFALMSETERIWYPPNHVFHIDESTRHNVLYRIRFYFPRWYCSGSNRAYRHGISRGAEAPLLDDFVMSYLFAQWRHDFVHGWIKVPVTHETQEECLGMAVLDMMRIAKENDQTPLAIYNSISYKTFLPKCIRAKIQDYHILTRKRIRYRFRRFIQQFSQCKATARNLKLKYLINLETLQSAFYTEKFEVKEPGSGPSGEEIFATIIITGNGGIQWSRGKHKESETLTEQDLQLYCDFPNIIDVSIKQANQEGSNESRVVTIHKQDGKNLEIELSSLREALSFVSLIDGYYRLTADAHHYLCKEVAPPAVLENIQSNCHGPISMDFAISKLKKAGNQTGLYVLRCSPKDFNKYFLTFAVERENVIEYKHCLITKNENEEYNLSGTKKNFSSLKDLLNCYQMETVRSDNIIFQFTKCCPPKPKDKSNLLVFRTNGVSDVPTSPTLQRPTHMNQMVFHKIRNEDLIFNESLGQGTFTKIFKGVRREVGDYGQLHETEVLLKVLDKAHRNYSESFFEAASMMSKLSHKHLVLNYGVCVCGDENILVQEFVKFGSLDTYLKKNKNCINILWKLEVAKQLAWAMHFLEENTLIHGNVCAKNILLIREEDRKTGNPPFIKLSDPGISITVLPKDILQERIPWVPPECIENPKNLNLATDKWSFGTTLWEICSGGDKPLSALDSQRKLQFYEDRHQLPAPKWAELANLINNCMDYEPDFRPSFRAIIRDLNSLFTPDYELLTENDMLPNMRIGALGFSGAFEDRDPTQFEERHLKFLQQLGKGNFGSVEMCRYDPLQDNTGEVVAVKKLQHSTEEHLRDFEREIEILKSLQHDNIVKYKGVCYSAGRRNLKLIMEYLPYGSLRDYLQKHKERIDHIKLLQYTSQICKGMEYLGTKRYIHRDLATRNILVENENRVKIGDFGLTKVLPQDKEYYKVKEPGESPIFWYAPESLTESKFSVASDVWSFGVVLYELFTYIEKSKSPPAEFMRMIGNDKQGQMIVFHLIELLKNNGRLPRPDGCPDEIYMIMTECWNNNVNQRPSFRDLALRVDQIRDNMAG

[2] = molecular target: Serine/threonine-protein kinase MARK2 (Homo sapiens, UniProt Q7KZI7); experiment: Inhibition of PAR1B-a (unknown origin)
Serine/threonine-protein kinase MARK2, sequence (Q7KZI7 whole entry): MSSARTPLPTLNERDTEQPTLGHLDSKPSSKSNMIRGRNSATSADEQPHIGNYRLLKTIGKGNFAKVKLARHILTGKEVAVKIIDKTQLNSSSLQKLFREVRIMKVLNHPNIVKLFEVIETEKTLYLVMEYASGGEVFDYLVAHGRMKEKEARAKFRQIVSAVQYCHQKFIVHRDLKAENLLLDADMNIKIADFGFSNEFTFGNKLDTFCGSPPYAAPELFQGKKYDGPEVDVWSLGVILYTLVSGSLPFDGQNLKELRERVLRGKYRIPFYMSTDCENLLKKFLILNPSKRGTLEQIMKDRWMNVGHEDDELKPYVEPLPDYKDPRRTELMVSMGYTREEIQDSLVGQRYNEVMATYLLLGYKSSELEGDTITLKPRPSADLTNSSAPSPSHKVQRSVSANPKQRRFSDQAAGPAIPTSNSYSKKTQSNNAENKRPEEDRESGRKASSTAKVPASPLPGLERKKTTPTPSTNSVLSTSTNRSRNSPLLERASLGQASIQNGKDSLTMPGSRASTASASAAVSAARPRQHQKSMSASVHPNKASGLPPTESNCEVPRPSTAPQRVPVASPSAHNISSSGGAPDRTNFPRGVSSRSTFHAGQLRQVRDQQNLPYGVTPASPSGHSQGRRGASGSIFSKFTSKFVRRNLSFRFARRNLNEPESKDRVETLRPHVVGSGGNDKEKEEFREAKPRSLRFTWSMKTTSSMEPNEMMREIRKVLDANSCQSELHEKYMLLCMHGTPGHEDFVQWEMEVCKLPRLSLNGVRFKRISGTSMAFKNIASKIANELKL

[3] = molecular target: Vascular endothelial growth factor receptor 3 (Homo sapiens, UniProt P35916); experiment: Inhibition of FLT4 (unknown origin)
Vascular endothelial growth factor receptor 3, sequence (P35916 whole entry): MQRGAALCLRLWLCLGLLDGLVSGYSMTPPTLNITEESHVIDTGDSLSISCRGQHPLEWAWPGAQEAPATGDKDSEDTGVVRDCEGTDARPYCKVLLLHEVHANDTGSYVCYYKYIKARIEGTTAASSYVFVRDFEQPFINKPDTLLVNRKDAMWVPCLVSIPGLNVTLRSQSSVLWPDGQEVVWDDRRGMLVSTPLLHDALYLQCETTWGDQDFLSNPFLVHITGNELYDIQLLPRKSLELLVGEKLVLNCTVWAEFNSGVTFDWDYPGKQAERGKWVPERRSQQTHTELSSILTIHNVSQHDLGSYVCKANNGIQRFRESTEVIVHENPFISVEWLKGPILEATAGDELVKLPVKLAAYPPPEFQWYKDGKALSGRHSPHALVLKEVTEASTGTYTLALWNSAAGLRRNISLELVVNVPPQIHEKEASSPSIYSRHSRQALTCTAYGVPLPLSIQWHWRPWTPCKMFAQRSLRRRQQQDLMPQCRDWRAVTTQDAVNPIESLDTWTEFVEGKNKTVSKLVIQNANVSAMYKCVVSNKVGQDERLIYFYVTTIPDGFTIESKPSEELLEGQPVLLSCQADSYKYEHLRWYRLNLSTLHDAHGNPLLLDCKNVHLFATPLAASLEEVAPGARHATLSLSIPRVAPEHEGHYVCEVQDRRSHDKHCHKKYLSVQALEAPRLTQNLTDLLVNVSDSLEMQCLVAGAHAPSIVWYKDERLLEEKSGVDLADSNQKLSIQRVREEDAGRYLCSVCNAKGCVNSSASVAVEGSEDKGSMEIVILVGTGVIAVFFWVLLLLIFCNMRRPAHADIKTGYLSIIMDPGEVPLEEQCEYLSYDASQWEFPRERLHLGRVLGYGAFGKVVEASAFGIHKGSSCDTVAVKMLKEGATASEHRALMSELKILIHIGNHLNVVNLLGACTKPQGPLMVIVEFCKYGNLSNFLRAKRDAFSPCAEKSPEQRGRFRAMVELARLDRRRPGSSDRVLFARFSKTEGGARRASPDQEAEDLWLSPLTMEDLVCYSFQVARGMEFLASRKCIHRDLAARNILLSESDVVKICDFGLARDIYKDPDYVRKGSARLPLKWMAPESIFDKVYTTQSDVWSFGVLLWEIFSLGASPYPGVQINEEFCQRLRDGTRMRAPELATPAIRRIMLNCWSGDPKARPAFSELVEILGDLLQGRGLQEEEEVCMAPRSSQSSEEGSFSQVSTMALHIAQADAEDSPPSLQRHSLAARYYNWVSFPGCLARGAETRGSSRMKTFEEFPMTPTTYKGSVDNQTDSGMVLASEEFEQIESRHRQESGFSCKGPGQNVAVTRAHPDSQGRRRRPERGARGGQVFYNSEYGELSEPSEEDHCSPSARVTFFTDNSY

[4] = Inhibition of JAK/STAT signaling pathway in human CD4+ve Th cells assessed as inhibition of IL-4 stimulated STAT6 phosphorylation at Y641 residue preincubated for 1 hr followed by IL-4 stimulation and measured after 15 mins by flow cytometry analysis; format: cell-based
[5] = molecular target: Serine/threonine-protein kinase Chk1 (Homo sapiens, UniProt O14757); experiment: Inhibition of CHK1 (unknown origin)
[6] = molecular target: Serine/threonine-protein kinase MARK1 (Homo sapiens, UniProt Q9P0L2); experiment: Inhibition of MARK1 (unknown origin)
[7] = molecular target: Tyrosine-protein kinase ITK/TSK (Homo sapiens, UniProt Q08881); experiment: Inhibition of ITK (unknown origin)
[8] = Inhibition of JAK/STAT signaling pathway in human CD14 positive monocytes assessed as inhibition of GM-CSF stimulated STAT5 phosphorylation at Y694 residue preincubated for 1 hr followed by GM-CSF stimulation and measured after 15 mins by flow cytometry analysis; format: cell-based
[9] = molecular target: T2, Receptor-type tyrosine-protein kinase FLT3 (Homo sapiens, UniProt P36888)
T2 sequence (P36888 whole entry): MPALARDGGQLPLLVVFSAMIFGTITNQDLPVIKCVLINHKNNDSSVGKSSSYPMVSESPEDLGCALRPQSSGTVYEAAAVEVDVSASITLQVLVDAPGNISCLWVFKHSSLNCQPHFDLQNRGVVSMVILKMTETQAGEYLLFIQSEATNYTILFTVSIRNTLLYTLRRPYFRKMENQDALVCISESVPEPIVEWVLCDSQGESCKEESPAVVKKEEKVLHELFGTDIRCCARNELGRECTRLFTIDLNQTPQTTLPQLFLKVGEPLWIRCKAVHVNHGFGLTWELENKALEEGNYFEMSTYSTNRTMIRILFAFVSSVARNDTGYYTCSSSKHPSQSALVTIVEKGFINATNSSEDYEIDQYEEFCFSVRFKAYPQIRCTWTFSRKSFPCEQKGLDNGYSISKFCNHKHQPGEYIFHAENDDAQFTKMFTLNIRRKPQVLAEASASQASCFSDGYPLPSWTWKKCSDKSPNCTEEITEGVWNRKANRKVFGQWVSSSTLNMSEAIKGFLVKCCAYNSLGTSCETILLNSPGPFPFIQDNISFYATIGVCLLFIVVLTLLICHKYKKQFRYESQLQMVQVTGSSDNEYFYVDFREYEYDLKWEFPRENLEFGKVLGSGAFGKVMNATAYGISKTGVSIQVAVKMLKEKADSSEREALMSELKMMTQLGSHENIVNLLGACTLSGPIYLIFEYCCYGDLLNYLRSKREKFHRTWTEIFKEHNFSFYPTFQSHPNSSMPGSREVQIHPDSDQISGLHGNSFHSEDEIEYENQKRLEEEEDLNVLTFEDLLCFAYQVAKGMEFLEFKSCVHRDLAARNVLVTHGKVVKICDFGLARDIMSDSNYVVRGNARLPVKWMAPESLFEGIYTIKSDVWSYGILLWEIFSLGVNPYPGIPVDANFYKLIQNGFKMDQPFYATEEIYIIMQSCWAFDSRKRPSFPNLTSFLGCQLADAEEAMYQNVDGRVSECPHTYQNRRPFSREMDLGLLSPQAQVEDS

[10] = Inhibition of JAK/STAT signaling pathway in human CD14 positive monocytes assessed as inhibition of IL-6 stimulated STAT3 phosphorylation at Y705 residue preincubated for 1 hr followed by IL-6 stimulation and measured after 15 mins by flow cytometry analysis; format: cell-based
[11] = molecular target: Ribosomal protein S6 kinase alpha-3 (Homo sapiens, UniProt P51812); experiment: Inhibition of RSK2 (unknown origin)
[12] = Inhibition of JAK/STAT signaling pathway in human CD8-positive T cells assessed as inhibition of IL-2 stimulated STAT5 phosphorylation at Y694 residue preincubated for 1 hr followed by IL-2 stimulation and measured after 15 mins by flow cytometry analysis; format: cell-based; conditions: CD8-positive T cell
[13] = molecular target: Proto-oncogene tyrosine-protein kinase receptor Ret (Homo sapiens, UniProt P07949); experiment: Inhibition of RET (unknown origin)
[14] = Inhibition of JAK/STAT signaling pathway in human CD19 positive B cells assessed as inhibition of IL-4 stimulated STAT6 phosphorylation at Y641 residue preincubated for 1 hr followed by IL-4 stimulation and measured after 15 mins by flow cytometry analysis; format: cell-based; conditions: CD19 positive B cell
[15] = Inhibition of JAK/STAT signaling pathway in human CD14 positive monocytes assessed as inhibition of IL-4 stimulated STAT6 phosphorylation at Y641 residue preincubated for 1 hr followed by IL-4 stimulation and measured after 15 mins by flow cytometry analysis; format: cell-based
[16] = molecular target: Ribosomal protein S6 kinase alpha-6 (Homo sapiens, UniProt Q9UK32); experiment: Inhibition of RSK4 (unknown origin)
[17] = Inhibition of JAK/STAT signaling pathway in human CD8-positive T cells assessed as inhibition of IL-4 stimulated STAT6 phosphorylation at Y641 residue preincubated for 1 hr followed by IL-4 stimulation and measured after 15 mins by flow cytometry analysis; format: cell-based; conditions: CD8-positive T cell
[18] = molecular target: Serine/threonine-protein kinase 3 (Homo sapiens, UniProt Q13188); experiment: Inhibition of MST2 (unknown origin)
Serine/threonine-protein kinase 3, sequence (Q13188 whole entry): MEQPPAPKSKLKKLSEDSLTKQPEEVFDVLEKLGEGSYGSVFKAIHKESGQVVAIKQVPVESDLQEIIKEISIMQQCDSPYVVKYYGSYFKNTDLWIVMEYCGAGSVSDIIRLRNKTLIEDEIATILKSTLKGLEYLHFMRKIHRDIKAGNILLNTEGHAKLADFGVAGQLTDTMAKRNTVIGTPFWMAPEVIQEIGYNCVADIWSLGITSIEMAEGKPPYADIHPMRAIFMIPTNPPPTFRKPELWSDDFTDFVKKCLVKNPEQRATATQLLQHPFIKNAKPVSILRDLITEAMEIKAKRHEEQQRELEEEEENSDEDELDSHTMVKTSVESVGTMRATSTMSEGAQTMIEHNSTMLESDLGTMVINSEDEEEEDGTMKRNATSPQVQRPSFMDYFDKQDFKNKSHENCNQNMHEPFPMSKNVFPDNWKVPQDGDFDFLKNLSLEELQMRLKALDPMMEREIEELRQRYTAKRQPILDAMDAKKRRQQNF

[19] = molecular target: Macrophage colony-stimulating factor 1 receptor (Homo sapiens, UniProt P07333); experiment: Inhibition of FMS (unknown origin)
[20] = Cytotoxicity against human CLL cells assessed inhibition of cell growth incubated for 72 hrs by propidium iodide staining based flow cytometry analysis; format: functional
[21] = molecular target: Mitogen-activated protein kinase kinase kinase kinase 2 (Homo sapiens, UniProt Q12851); experiment: Inhibition of GCK (unknown origin)
[22] = molecular target: Mitogen-activated protein kinase kinase kinase 9 (Homo sapiens, UniProt P80192); experiment: Inhibition of MLK1 (unknown origin)
[23] = Inhibition of JAK/STAT signaling pathway in human CD4+ve Th cells assessed as inhibition of IL-2 stimulated STAT5 phosphorylation at Y694 residue preincubated for 1 hr followed by IL-2 stimulation and measured after 15 mins by flow cytometry analysis; format: cell-based
[24] = molecular target: Tyrosine-protein kinase JAK3 (Homo sapiens, UniProt P52333); experiment: Inhibition of JAK3 (unknown origin) by flow cytometry analysis
[25] = molecular target: Tyrosine-protein kinase SYK (Homo sapiens, UniProt P43405); experiment: Inhibition of SYK (unknown origin) by flow cytometry analysis
[26] = molecular target: T1, Tyrosine-protein kinase JAK2; experiment: Inhibition of JAK2 (unknown origin) by flow cytometry analysis
[27] = molecular target: Non-receptor tyrosine-protein kinase TYK2 (Homo sapiens, UniProt P29597); experiment: Inhibition of TYK2 (unknown origin) by flow cytometry analysis
[28] = molecular target: Tyrosine-protein kinase JAK1 (Homo sapiens, UniProt P23458); experiment: Inhibition of JAK1 (unknown origin) by flow cytometry analysis
Tyrosine-protein kinase JAK1, sequence (P23458 whole entry): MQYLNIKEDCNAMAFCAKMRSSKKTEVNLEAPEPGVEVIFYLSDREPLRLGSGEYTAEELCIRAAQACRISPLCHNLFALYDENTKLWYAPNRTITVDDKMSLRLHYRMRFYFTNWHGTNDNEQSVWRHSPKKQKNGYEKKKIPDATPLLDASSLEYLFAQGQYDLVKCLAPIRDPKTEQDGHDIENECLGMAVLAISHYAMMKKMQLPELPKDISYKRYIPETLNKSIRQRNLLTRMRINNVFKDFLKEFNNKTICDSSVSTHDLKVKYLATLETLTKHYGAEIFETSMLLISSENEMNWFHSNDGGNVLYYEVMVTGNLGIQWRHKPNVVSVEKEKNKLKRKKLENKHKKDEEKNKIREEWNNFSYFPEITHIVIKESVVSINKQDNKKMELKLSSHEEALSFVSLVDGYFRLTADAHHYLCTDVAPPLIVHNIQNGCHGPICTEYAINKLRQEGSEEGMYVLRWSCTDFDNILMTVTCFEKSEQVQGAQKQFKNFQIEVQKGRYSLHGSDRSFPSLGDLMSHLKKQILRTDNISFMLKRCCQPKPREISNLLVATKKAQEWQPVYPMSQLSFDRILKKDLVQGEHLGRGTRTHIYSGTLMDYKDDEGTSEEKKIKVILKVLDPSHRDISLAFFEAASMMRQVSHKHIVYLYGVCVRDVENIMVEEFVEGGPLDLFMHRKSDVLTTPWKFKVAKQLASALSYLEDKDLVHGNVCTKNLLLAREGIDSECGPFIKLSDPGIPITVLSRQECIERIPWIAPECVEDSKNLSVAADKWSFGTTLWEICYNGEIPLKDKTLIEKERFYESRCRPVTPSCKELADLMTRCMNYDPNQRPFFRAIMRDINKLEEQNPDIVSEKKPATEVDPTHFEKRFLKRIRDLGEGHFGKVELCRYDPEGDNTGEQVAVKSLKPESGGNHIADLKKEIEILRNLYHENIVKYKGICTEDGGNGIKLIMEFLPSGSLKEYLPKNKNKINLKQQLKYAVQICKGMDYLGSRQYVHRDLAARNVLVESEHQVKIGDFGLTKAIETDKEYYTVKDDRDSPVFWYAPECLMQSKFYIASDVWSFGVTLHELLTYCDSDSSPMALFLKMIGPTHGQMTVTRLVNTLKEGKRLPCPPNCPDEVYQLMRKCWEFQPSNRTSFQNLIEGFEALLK

MOLM-13 = experiment: Antitumor activity against human MOLM-13 cells xenografted mouse model assessed as tumor growth inhibition at 150 mg/kg administered for 7 days relative to control; format: functional; conditions: MOLM-13, 168 h, time 7 day, read-out: TGI
BaF3 [29] = experiment: Antitumor activity against mouse BaF3 cells harboring JAK2 V617F mutant implanted in BALB/c mouse model assessed as normalization rate of spleen weight at 150 mg/kg, po qd administered from day 4 post infection and measured after 14 days relative to control; format: functional; conditions: time 10 day
BaF3 [30] = experiment: Antitumor activity against mouse BaF3 cells harboring JAK2 V617F mutant implanted in BALB/c mouse model assessed as normalization rate of liver weight at 150 mg/kg, po qd administered from day 4 post infection and measured after 14 days relative to control; format: functional; conditions: time 10 day
[31] = molecular target: Tyrosine-protein kinase Tec (Homo sapiens, UniProt P42680); experiment: Inhibition of TEC (unknown origin) in presence of ATP
MV4-11 = experiment: Antitumor activity against human MV4-11 cells harboring FLT3 […] mutant xenografted acute myeloid leukemia BALB/c mouse model assessed as tumor growth inhibition at 40 mg/kg, po qd administered daily for 21 days relative to control; format: functional; conditions: MV4-11, 504 h, time 21 day, read-out: TGI

pIC50 [1]: 8.59
Compound: C[C@H]1CC(C(=O)CC#N)[C@]12CCN(c1ncnc3[nH]ccc13)C2 (stereo partly drawn)

pIC50 [2]: 8.40
pIC50 [3]: 8.40
pIC50 [4]: > 6.00
pIC50 [5]: 8.40
pIC50 [6]: 8.40
pIC50 [7]: 8.40
pIC50 [8]: < 5.40
pIC50 [9]: 8.40
pIC50 [10]: > 6.00
pIC50 [11]: 8.40
pIC50 [12]: > 6.00
pIC50 [13]: 8.40
pIC50 [14]: > 6.00
pIC50 [15]: > 6.00
pIC50 [16]: 8.40
pIC50 [17]: > 6.00
pIC50 [18]: 8.40
pIC50 [19]: 8.40
pIC50 [21]: 8.40
pIC50 [22]: 8.40
pIC50 [23]: > 6.00
Compound: CCS(=O)(=O)N1CCN(c2ccc(Nc3ncc(C(N)=O)c(NC4CC4)n3)cc2)CC1 [CERDULATINIB]
pIC50 [20]: 6.43

pIC50 [24]: 7.96
pIC50 [25]: 8.30
pIC50 [26]: 8.40
pIC50 [27]: 8.10
pIC50 [28]: 7.34
Compound: N#CCC1CCN(c2nc(Nc3ccc(N4CCC(O)CC4)cc3)c3c(=O)[nH]ncc3n2)CC1 [GUSACITINIB]

Compound: C1=N/C2=N/c3ccc(OCCN4CCCC4)c(c3)COC/C=C/COCc3cccc(c3)C(=C1)N2 [PACRITINIB]
inhibition in vivo at 150 mg/kg (MOLM-13): 83%
Activity (BaF3 [29]): 42%
Activity (BaF3 [30]): 99%

pIC50 [31]: 6.81
Compound: C=CC(=O)N1C[C@H](Nc2ncnc3[nH]ccc23)CC[C@@H]1C [RITLECITINIB]

Compound: CN1C/C=C/CCOc2cccc(c2)-c2ccnc(n2)Nc2cccc(c2)C1 [ZOTIRACICLIB]
inhibition in vivo at 40 mg/kg (MV4-11): 113%
